PubChem BioAssay (NCI)
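48-hour exposure; five concentrations; linearly interpolated endpoints. Here, GI50 denotes the concentration required for 50% inhibition of growth. TGI marks complete inhibition of growth.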

Key:
Test in all cases: growth of human tumour cells (NCI), 48 h
[1] = test system: ACHN renal
[2] = test system: CAKI-1 renal
[3] = test system: HCT-116 colon
[4] = test system: MDA-MB-435
[5] = test system: OVCAR-3 ovarian
[6] = test system: SF-539 CNS
[7] = test system: SK-OV-3 ovarian
[8] = test system: SNB-75 CNS
[9] = test system: SR leukemia
[10] = test system: SW-620 colon
[11] = test system: T-47D breast
[12] = test system: TK-10 renal
[13] = test system: MDA-N

`O=C(CSCC(=O)N/N=C/c1cccc(O)c1)N/N=C/c1cccc(O)c1` showed a TGI [1] greater than 100 µM, a TGI [2] greater than 100 µM and a TGI [3] greater than 100 µM. It also gave a TGI [4] greater than 100 µM, a TGI [5] greater than 100 µM and a TGI [6] greater than 100 µM. For the same compound, the TGI [7] was greater than 100 µM, the TGI [8] was greater than 100 µM and the TGI [9] was greater than 100 µM. It also gave a TGI [10] greater than 100 µM, a TGI [11] greater than 100 µM and a TGI [12] greater than 100 µM.
For `CCOC(=O)c1c2c(n(-c3ccc(C)cc3)c1C)-c1ccccc1C(=O)C2(C(=O)OCC)C(=O)OCC`, the TGI [1] was greater than 100 µM, the TGI [2] was greater than 100 µM and the TGI [3] was greater than 72.9 µM. It also gave a TGI [4] of 93.5 µM, a TGI [5] of 69.2 µM and a TGI [6] greater than 71.9 µM. The TGI [7] was greater than 100 µM, the TGI [8] was greater than 91.4 µM and the TGI [9] was greater than 4.64 µM. For the same compound, the TGI [10] was greater than 100 µM, the TGI [11] was 64.5 µM and the TGI [12] was greater than 100 µM.
With `O=c1[nH]c2[nH]c(=S)[nH]c(=S)c2[nH]1` the TGI [1] was greater than 100 µM, the TGI [2] was greater than 100 µM and the TGI [3] was greater than 100 µM. It also gave a TGI [4] greater than 100 µM, a TGI [13] greater than 100 µM and a TGI [9] greater than 100 µM. For the same compound, the TGI [10] was greater than 100 µM, the TGI [11] was greater than 100 µM and the TGI [12] was greater than 100 µM.
In the case of `CN1C(=O)CC(=O)N1/C(=C/c1ccccc1)c1ccccc1`, the TGI [1] is reported as greater than 100 µM, the TGI [2] is reported as 62.5 µM and the TGI [3] is reported as greater than 100 µM. The TGI [4] was greater than 100 µM, the TGI [13] was greater than 100 µM and the TGI [5] was greater than 100 µM. For the same compound, the TGI [7] was greater than 100 µM, the TGI [8] was greater than 100 µM and the TGI [9] was greater than 100 µM. The TGI [10] was greater than 100 µM, the TGI [11] was greater than 100 µM and the TGI [12] was 91.9 µM.
`COc1ccc2nc3cc(Cl)ccc3c(NC(C)CCCN(CCCl)CCCl)c2c1` (stereo unspecified) gave a TGI [1] of 3.17 µM, a TGI [2] of 13.9 µM and a TGI [3] of 1.5 µM. For the same compound, the TGI [5] was 6.87 µM, the TGI [6] was 3 µM and the TGI [7] was 6.59 µM. For the same compound, the TGI [8] was 8.98 µM, the TGI [9] was 0.502 µM and the TGI [10] was 2.07 µM. For the same compound, the TGI [12] was 6.04 µM.
Work on `CSCCC(C(=O)O)N(C)C` (stereo unspecified) yielded a TGI [1] greater than 100 µM, a TGI [2] greater than 100 µM and a TGI [3] greater than 100 µM. It also gave a TGI [4] greater than 100 µM, a TGI [13] greater than 100 µM and a TGI [5] greater than 100 µM. It also gave a TGI [6] greater than 100 µM, a TGI [7] greater than 100 µM and a TGI [8] greater than 100 µM. It also gave a TGI [9] greater than 100 µM, a TGI [10] greater than 100 µM and a TGI [11] greater than 100 µM. It also gave a TGI [12] greater than 100 µM.
Work on `C=CCNC(=O)C(C)C1CCC2(C)C=CC(=O)C(C)=C2C1O` (stereo unspecified) yielded a TGI [2] greater than 100 µM, a TGI [3] greater than 100 µM and a TGI [5] greater than 100 µM. It also gave a TGI [6] greater than 100 µM, a TGI [7] greater than 100 µM and a TGI [8] greater than 100 µM. It also gave a TGI [10] greater than 100 µM.
Work on `Oc1ccc(C(=C(Br)c2ccccc2)c2ccc(O)cc2)cc1` yielded a TGI [1] of 21.7 µM, a TGI [2] of 30.8 µM and a TGI [3] of 15.9 µM. It also gave a TGI [4] of 3.45 µM, a TGI [13] of 4.1 µM and a TGI [5] of 8.99 µM. The TGI [6] was 18.8 µM, the TGI [7] was 16.9 µM and the TGI [10] was 14.9 µM. It also gave a TGI [11] of 46.2 µM and a TGI [12] of 31.8 µM.
Compound `C=C(C#N)C(=O)OCC(CC)CC.C=C(C#N)C(=O)OCC(CC)CC.CS(C)=O.CS(C)=O.Nc1c(N=Nc2ccc(-c3ccc(N=Nc4cc(S(=O)(=O)[O-])c5ccccc5c4N)cc3)cc2)cc(S(=O)(=O)[O-])c2ccccc12.[Pt+2]` has a GI50 [2] of 20.4 µM, a TGI [2] of 53.7 µM and a GI50 [3] greater than 65.2 µM. The TGI [3] was greater than 100 µM, the GI50 [5] was 25.9 µM and the TGI [5] was greater than 58 µM. For the same compound, the GI50 [6] was 84.7 µM, the TGI [6] was greater than 100 µM and the GI50 [7] was 97.9 µM. The TGI [7] was greater than 100 µM, the GI50 [8] was 65.4 µM and the TGI [8] was greater than 100 µM. For the same compound, the GI50 [10] was 25 µM and the TGI [10] was 46.2 µM.
`Cc1ccc(S(=O)(=O)OC2CC(C(C)(C)C)CCC2c2ccccc2)cc1` (stereo unspecified) showed a TGI [1] greater than 100 µM, a TGI [2] greater than 100 µM and a TGI [3] greater than 100 µM. It also gave a TGI [4] greater than 100 µM, a TGI [13] greater than 100 µM and a TGI [5] greater than 100 µM. For the same compound, the TGI [6] was greater than 100 µM, the TGI [7] was greater than 100 µM and the TGI [8] was 68 µM. For the same compound, the TGI [9] was greater than 100 µM, the TGI [10] was greater than 100 µM and the TGI [11] was greater than 100 µM. For the same compound, the TGI [12] was greater than 100 µM.
With `O=C1c2cc(O)c(O)cc2O[C@H](c2ccc(O)c(O)c2)[C@H]1O` the TGI [1] was greater than 100 µM, the TGI [2] was greater than 100 µM and the TGI [3] was greater than 100 µM. For the same compound, the TGI [4] was greater than 100 µM, the TGI [13] was greater than 100 µM and the TGI [5] was greater than 100 µM. It also gave a TGI [6] greater than 100 µM, a TGI [7] greater than 100 µM and a TGI [8] greater than 100 µM. The TGI [9] was greater than 100 µM, the TGI [10] was greater than 100 µM and the TGI [11] was greater than 100 µM. For the same compound, the TGI [12] was greater than 100 µM.
For `O=C1c2ccccc2C(=O)c2[nH]cnc21`, the TGI [1] was greater than 100 µM, the TGI [2] was greater than 100 µM and the TGI [3] was greater than 100 µM. For the same compound, the TGI [5] was 66.2 µM, the TGI [6] was greater than 100 µM and the TGI [9] was greater than 100 µM. For the same compound, the TGI [12] was greater than 100 µM.
For `CCN(CC)CCNc1ccc2ncn3c4ccc(O)cc4c(=O)c1c23`, the TGI [1] was 2.89 µM, the TGI [2] was 2.08 µM and the TGI [3] was 13 µM. It also gave a TGI [4] of 18.4 µM, a TGI [13] of 17.9 µM and a TGI [5] of 13.6 µM. The TGI [6] was 16.9 µM, the TGI [7] was 18.2 µM and the TGI [8] was 11.6 µM. The TGI [9] was 2.27 µM, the TGI [10] was 8.84 µM and the TGI [11] was 30.7 µM. For the same compound, the TGI [12] was 20.1 µM.
